Assay: Dose required for antitumor efficacy tested in vivo against primary kidney tumors in murine renal carcinoma (RENCA)
Assay type: functional, Mus musculus

For `COc1cccc2c1C(=O)c1c(O)c3c(c(O)c1C2=O)C[C@@](O)(/C(CO)=N/NC(=O)Cc1ccc(N2C(=O)C=CC2=O)cc1)C[C@@H]3OC1CC(C)C(O)C(N)C1.Cl` (stereo partly specified), which Dose is on record?
Its Dose is 80 mM/kg.

— ChEMBL document CHEMBL1132989, “A novel macromolecular prodrug concept exploiting endogenous serum albumin as a drug carrier for cancer chemotherapy” (2000)
